From the supplement of paper PMC12494721

How the values were obtained:
Conditions in all cases: incubation time: 27 h, anaerobic, 37 °C
[1] = test system: Clostridium sporogenes DSM 1664; assay: fold change of Tryptamine concentration vs plate DMSO controls (fold change (ratio)); higher = more amine produced
[2] = test system: Clostridium sporogenes DSM 1664; assay: growth (OD595) fold change vs plate DMSO controls (fold change (ratio)); higher = more growth
[3] = test system: Ruminococcus gnavus DSM 108212; assay: fold change of Tryptamine concentration vs plate DMSO controls (fold change (ratio)); higher = more amine produced
[4] = test system: Ruminococcus gnavus DSM 108212; assay: fold change of 2-Phenylethylamine concentration vs plate DMSO controls (fold change (ratio)); higher = more amine produced
[5] = test system: Ruminococcus gnavus DSM 108212; assay: growth (OD595) fold change vs plate DMSO controls (fold change (ratio)); higher = more growth
[6] = test system: Klebsiella aerogenes DSM 30053; assay: fold change of Histamine concentration vs plate DMSO controls (fold change (ratio)); higher = more amine produced
Procedure: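 Dose-response follow-up: bacteria (E. coli IAI1, K. aerogenes DSM 30053, C. sporogenes DSM 1664, R. gnavus DSM 108212) were grown anaerobically in mGAM at 37 °C for 27 h with compound at 0.6125-20 µM. Amines were measured in the whole culture by targeted LC-MS/MS. Metabolite fold change and OD595 fold change are relative to plate DMSO controls; n=2 biological replicates. OD fold changes are not clipped, so slightly negative values mean no growth.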

[7] = test system: Klebsiella aerogenes DSM 30053; assay: fold change of Cadaverine concentration vs plate DMSO controls (fold change (ratio)); higher = more amine produced
[8] = test system: Klebsiella aerogenes DSM 30053; assay: fold change of Putrescine concentration vs plate DMSO controls (fold change (ratio)); higher = more amine produced
[9] = test system: Klebsiella aerogenes DSM 30053; assay: growth (OD595) fold change vs plate DMSO controls (fold change (ratio)); higher = more growth

Cc1ncc([N+](=O)[O-])n1C [Dimetridazole]
Conditions | fold change of Tryptamine concentration, [1] | growth, [2]
0.6125 µM | 0.869 | 1.15
1.25 µM | 0.772 | 1.1
2.5 µM | 0.685 | 0.842
5 µM | 0.184 | 1.1
10 µM | 0.0282 | -0.0122
20 µM | 0.0226 | -0.0151

C[C@@H](O)[C@H]1C(=O)N2C(C(=O)O)=C(S[C@@H]3CN[C@H](CNS(N)(=O)=O)C3)[C@H](C)[C@H]12 [Doripenem monohydrate]
Conditions | fold change of 2-Phenylethylamine concentration, [4] | fold change of Tryptamine concentration, [3] | growth, [5]
0.6125 µM | 0.242 | 0.35 | 1.74
1.25 µM | 0.158 | 0.206 | 0.893
2.5 µM | 0.118 | 0.16 | 2.1
5 µM | 0.119 | 0.15 | 0.381
10 µM | 0.0974 | 0.121 | 0.355
20 µM | 0.111 | 0.128 | 0.36

CS(=O)(=O)c1ccc([C@@H](O)[C@@H](CF)NC(=O)C(Cl)Cl)cc1 [Florfenicol]
Conditions | fold change of 2-Phenylethylamine concentration, [4] | fold change of Tryptamine concentration, [1] | fold change of Tryptamine concentration, [3] | growth, [2] | growth, [5]
0.6125 µM | 0.644 | 0.86 | 0.662 | 1.14 | 0.826
1.25 µM | 0.572 | 0.636 | 0.537 | 0.685 | 0.757
2.5 µM | 0.509 | 0.0416 | 0.516 | 0.0218 | 0.681
5 µM | 0.311 | 0.0331 | 0.393 | -0.0331 | 0.386
10 µM | 0.203 | 0.0302 | 0.261 | -0.0315 | 0.252
20 µM | 0.199 | 0.0273 | 0.241 | -0.0323 | 0.0641

CC1CCc2cc(F)cc3c(=O)c(C(=O)O)cn1c23 (centres undefined) [Flumequine]
Conditions | fold change of Tryptamine concentration, [1] | growth, [2]
0.6125 µM | 1.03 | 1.02
1.25 µM | 1.06 | 1.04
2.5 µM | 1.11 | 1
5 µM | 0.996 | 0.948
10 µM | 0.569 | 0.659
20 µM | 0.0662 | 0.202

COc1c(N2C[C@@H]3CCCN[C@@H]3C2)c(F)cc2c(=O)c(C(=O)O)cn(C3CC3)c12 [Moxifloxacin]
Conditions | fold change of 2-Phenylethylamine concentration, [4] | fold change of Tryptamine concentration, [3] | growth, [5]
0.6125 µM | 2.13 | 2.33 | 0.813
1.25 µM | 2.4 | 2.83 | 0.562
2.5 µM | 2.64 | 3.17 | 0.528
5 µM | 2.66 | 3.27 | 0.491
10 µM | 1.29 | 2 | 0.279
20 µM | 0.274 | 0.511 | 0.119

OC[C@H]1O[C@@H](n2cnc3cncnc32)[C@H](O)[C@@H]1O [Nebularine]
Conditions | fold change of 2-Phenylethylamine concentration, [4] | fold change of Tryptamine concentration, [3] | growth, [5]
0.6125 µM | 0.725 | 0.84 | 0.842
1.25 µM | 0.65 | 0.755 | 0.629
2.5 µM | 0.367 | 0.503 | 0.339
5 µM | 0.321 | 0.464 | 0.336
10 µM | 0.413 | 0.552 | 0.336
20 µM | 0.434 | 0.585 | 0.333

CCn1cc(C(=O)O)c(=O)c2cc(F)c(N3CCNCC3)cc21 [Norfloxacin]
Conditions | fold change of 2-Phenylethylamine concentration, [4] | fold change of Cadaverine concentration, [7] | fold change of Histamine concentration, [6] | fold change of Putrescine concentration, [8] | fold change of Tryptamine concentration, [1] | fold change of Tryptamine concentration, [3] | growth, [2] | growth, [5] | growth, [9]
0.6125 µM | 1.3 | 0.969 | 1.18 | 1.02 | 0.911 | 1.44 | 1.02 | 1.36 | 1.14
1.25 µM | 1.98 | 1.02 | 0.775 | 1.21 | 0.589 | 2.07 | 0.736 | 0.823 | 0.479
2.5 µM | 1.23 | 1 | 0.571 | 1.29 | 0.0459 | 1.45 | 0.00966 | 0.713 | 0.363
5 µM | 1.2 | 1 | 0.19 | 1.31 | 0.035 | 1.32 | 0.0175 | 0.628 | 0.384
10 µM | 1.25 | 1.01 | 0.262 | 1.37 | 0.0429 | 1.41 | 0.0423 | 0.607 | 0.385
20 µM | 1.38 | 1 | 0.237 | 1.37 | 0.0345 | 1.51 | 0.00666 | 0.425 | 0.256

CO[C@H]1/C=C/O[C@@]2(C)Oc3c(C)c(O)c4c(O)c(c5c(nc6cc(C)ccn65)c4c3C2=O)NC(=O)/C(C)=C\C=C\[C@H](C)[C@H](O)[C@@H](C)[C@@H](O)[C@@H](C)[C@H](OC(C)=O)[C@@H]1C [Rifaximin]
Conditions | fold change of Tryptamine concentration, [1] | growth, [2]
0.6125 µM | 0.601 | 1.05
1.25 µM | 0.0574 | 0.257
2.5 µM | 0.03 | -0.0262
5 µM | 0.0292 | -0.0255
10 µM | 0.0294 | -0.0254
20 µM | 0.0294 | -0.0277
